Data reported in US6251948A, “Tri-and tetra-substituted guanidines and their use as excitatory amino acid antagonists” (State of Oregon, acting by and through the Oregon State …, priority 1995, dated 2001).
Counter-ions that a name gives are not always drawn.

Assays:
[1] = test system: lesions caused by NMDA injection; test: In vivo neurotoxicity assay: NMDA-induced lesion (model of McDonald et al.); set-up: species or system rat; conditions: 0.1 to 100 umol/kg of body weight; intraperitoneal, 15 minutes following cerebral NMDA injection
From the text: In the in vivo neurotoxicity studies, the experimental model of McDonald, J. W., et al., (In: Sigma and Phencyclidine-like Compounds as Molecular Probes in Biology, Ed. Domino, E. F., and Kamenka, J.-M., pp. 697-707 (1988), NPP Books, Ann Arbor, Mich.) can be employed. In this model, an NMDA injection into one cerebral hemisphere of a rat pup causes brain injury which resembles the lesion produced by hypoxia-ischemia. The ability of test compounds to limit the NMDA-induced lesion is a measure of their neuroprotective properties; and, since the compounds are administered intraperitoneally, the model also provides information about a compound's ability to cross the blood-brain barrier.
The experimental model of McDonald, J. W., et al., supra, was employed with the single alteration in protocol of an intraperitoneal injection of the test compound 15 minutes following, rather than preceding, the cerebral NMDA injection.

sigma brain receptor = conditions: Weber et al. 1986; U.S. Pat. No. 4,709,094; cited from earlier work
Korsakoff's disease = conditions: pretreatment; rat model; cited from earlier work

CCc1cccc(N(C)C(=N)Nc2cccc3ccccc23)c1 [Compound VII, N-(1-Naphthyl)-N'-(m-ethylphenyl)-N'-methylquanidine Hydrochloride]
protection against the lesions caused by NMDA injection [1]: protect against the lesions caused by NMDA injection

Cc1ccccc1NC(=N)Nc1ccccc1C [DTG, 1,3 di-o-tolyl-guanidine]
selectivity for the sigma receptor (sigma brain receptor): strong selectivity for the sigma receptor

C[C@]12N[C@H](Cc3ccccc31)c1ccccc12 [MK-801, (+)-5-methyl-10,11-dihydro-5H-dibenzo[a,d]cycloheptene-5,10-imine]
extent of cell loss, hemorrhages and amino acid changes (Korsakoff's disease): markedly attenuates the extent of cell loss, hemorrhages and amino acid changes
